Results published in patent EP0013067A1, “Bicyclic beta-lactam antibacterial agents, their use in pharmaceutical compositions, processes for their preparation and intermediates for use in such processes” (BEECHAM GROUP PLC, priority 1978, dated 1980).
≈ marks a conversion by molar mass, not a printed value.

Key:
Assay type in all cases: cell-based
E. coli ESS [1] = experiment: MIC, DST agar + 10% horse blood; details: Escherichia coli, inoculum 0.001 ml of an undilute overnight broth culture, unit inferred
Excerpt: (§1) The ninimum inhibitory concentrations (MIC) cf this compound required to inhibit the growth of various bacteria are tabulated balow: […]

Citrobacter freundii E8 [2] = experiment: MIC, DST agar + 10% horse blood; details: Citrobacter freundii, E8, read-out: MIC Agar
Excerpt: as §1

Pseudomonas aeruginosa A [3] = experiment: MIC, DST agar + 10% horse blood; details: Pseudomonas aeruginosa, read-out: MIC Agar
Excerpt: as §1

[4] = system: Streptococcus pneumoniae CN33; experiment: MIC, DST agar + 10% horse blood; details: Streptococcus pneumoniae CN33; DST agar + 10% horse blood; inoculum 0.001 ml of an undilute overnight broth culture; unit inferred; read-out: MIC Agar
Excerpt: as §1

Proteus mirabilis C977 [5] = experiment: MIC, DST agar + 10% horse blood; details: Proteus mirabilis C977; DST agar + 10% horse blood; inoculum 0.001 ml of an undilute overnight broth culture; unit inferred; read-out: MIC Agar
Excerpt: as §1

Streptococcus faecalis I [6] = experiment: MIC, DST agar + 10% horse blood; details: Enterococcus faecalis; Streptococcus faecalis I; DST agar + 10% horse blood; inoculum 0.001 ml of an undilute overnight broth culture; unit inferred; read-out: MIC Agar
Excerpt: as §1

[7] = system: Staphylococcus aureus Oxford; experiment: MIC, DST agar + 10% horse blood; details: Staphylococcus aureus Oxford; DST agar + 10% horse blood; inoculum 0.001 ml of an undilute overnight broth culture; unit inferred; read-out: MIC Agar
Excerpt: as §1

Escherichia coli JT 39 [8] = experiment: MIC, DST agar + 10% horse blood; details: JT39; Escherichia coli JT 39; DST agar + 10% horse blood; inoculum 0.001 ml of an undilute overnight broth culture; unit inferred; read-out: MIC Agar
Excerpt: as §1

Serratia marcescens US20 [9] = experiment: MIC, DST agar + 10% horse blood; details: Serratia marcescens US20; DST agar + 10% horse blood; inoculum 0.001 ml of an undilute overnight broth culture; unit inferred; read-out: MIC Agar
Excerpt: as §1

Klebsiella aerogenes A [10] = experiment: MIC, DST agar + 10% horse blood; details: Klebsiella aerogenes A; DST agar + 10% horse blood; inoculum 0.001 ml of an undilute overnight broth culture; unit inferred; read-out: MIC Agar
Excerpt: as §1

[11] = system: Salmonella typhimurium CT10; experiment: MIC, DST agar + 10% horse blood; details: Salmonella enterica, TYPHIMURIUM, read-out: MIC Agar
Excerpt: as §1

Shigella sonnei MB 11967 [12] = experiment: MIC, DST agar + 10% horse blood; details: MB11967, inoculum 0.001 ml of an undilute overnight broth culture, unit inferred
Excerpt: as §1

Bacillus subtilis A = experiment: MIC, DST agar + 10% horse blood; details: Bacillus subtilis A; DST agar + 10% horse blood; inoculum 0.001 ml of an undilute overnight broth culture; unit inferred; read-out: MIC Agar
Excerpt: as §1

Escherichia coli 0111 [13] = experiment: MIC, DST agar + 10% horse blood; details: Escherichia coli, 0111, inoculum 0.001 ml of an undilute overnight broth culture, unit inferred
Excerpt: as §1

Proteus rettgeri WM16 = experiment: MIC, DST agar + 10% horse blood; details: Providencia rettgeri; Proteus rettgeri WM16; DST agar + 10% horse blood; inoculum 0.001 ml of an undilute overnight broth culture; unit inferred; read-out: MIC Agar
Excerpt: as §1

Enterobacter cloacae N1 [14] = experiment: MIC, DST agar + 10% horse blood; details: Enterobacter cloacae N1; DST agar + 10% horse blood; inoculum 0.001 ml of an undilute overnight broth culture; unit inferred; read-out: MIC Agar
Excerpt: as §1

Proteus vulgaris W091 = experiment: MIC, DST agar + 10% horse blood; details: W091; Proteus vulgaris WO91; DST agar + 10% horse blood; inoculum 0.001 ml of an undilute overnight broth culture; unit inferred; read-out: MIC Agar
Excerpt: as §1

[15] = system: Staphylococcus aureus Russell; experiment: MIC, DST agar + 10% horse blood; details: Staphylococcus aureus Russell; DST agar + 10% horse blood; inoculum 0.001 ml of an undilute overnight broth culture; unit inferred; read-out: MIC Agar
Excerpt: as §1

[16] = system: Streptococcus pyogenes CN10; experiment: MIC, DST agar + 10% horse blood; details: Streptococcus pyogenes CN10; DST agar + 10% horse blood; inoculum 0.001 ml of an undilute overnight broth culture; unit inferred; read-out: MIC Agar
Excerpt: as §1

[17] = system: Staphylococcus aureus 1517; experiment: MIC, DST agar + 10% horse blood; details: Staphylococcus aureus 1517; DST agar + 10% horse blood; inoculum 0.001 ml of an undilute overnight broth culture; unit inferred; read-out: MIC Agar
Excerpt: as §1

Proteus morganii I580 [18] = experiment: MIC, DST agar + 10% horse blood; details: Morganella morganii; Proteus morganii I580; DST agar + 10% horse blood; inoculum 0.001 ml of an undilute overnight broth culture; unit inferred; read-out: MIC Agar
Excerpt: as §1

E. coli ESS [19] = experiment: MIC, microtitre using Nutrient broth; details: Escherichia coli, inoculum 0.001 ml of an undilute overnight broth culture, unit inferred
Excerpt: as §1

Citrobacter freundii E8 [20] = experiment: MIC, microtitre using Nutrient broth; details: inoculum 0.001 ml of an undilute overnight broth culture, unit inferred
Excerpt: as §1

Pseudomonas aeruginosa A [21] = experiment: MIC, microtitre using Nutrient broth; details: Pseudomonas aeruginosa; Pseudomanas aeruginosa A; Microtitre using Nutrient broth; inoculum 0.001 ml of an undilute overnight broth culture; unit inferred; read-out: MIC Broth
Excerpt: as §1

Proteus mirabilis C977 [22] = experiment: MIC, microtitre using Nutrient broth; details: Proteus mirabilis C977; Microtitre using Nutrient broth; inoculum 0.001 ml of an undilute overnight broth culture; unit inferred; read-out: MIC Broth
Excerpt: as §1

Streptococcus faecalis I [23] = experiment: MIC, microtitre using Nutrient broth; details: Enterococcus faecalis, inoculum 0.001 ml of an undilute overnight broth culture, unit inferred
Excerpt: as §1

[24] = system: Staphylococcus aureus Oxford; experiment: MIC, microtitre using Nutrient broth; details: Staphylococcus aureus Oxford; Microtitre using Nutrient broth; inoculum 0.001 ml of an undilute overnight broth culture; unit inferred; read-out: MIC Broth
Excerpt: as §1

Escherichia coli JT 39 [25] = experiment: MIC, microtitre using Nutrient broth; details: JT39; Escherichia coli JT 39; Microtitre using Nutrient broth; inoculum 0.001 ml of an undilute overnight broth culture; unit inferred; read-out: MIC Broth
Excerpt: as §1

Serratia marcescens US20 [26] = experiment: MIC, microtitre using Nutrient broth; details: inoculum 0.001 ml of an undilute overnight broth culture, unit inferred
Excerpt: as §1

Klebsiella aerogenes A [27] = experiment: MIC, microtitre using Nutrient broth; details: Klebsiella aerogenes A; Microtitre using Nutrient broth; inoculum 0.001 ml of an undilute overnight broth culture; unit inferred; read-out: MIC Broth
Excerpt: as §1

Shigella sonnei MB 11967 [28] = experiment: MIC, microtitre using Nutrient broth; details: MB11967, inoculum 0.001 ml of an undilute overnight broth culture, unit inferred
Excerpt: as §1

Escherichia coli 0111 [29] = experiment: MIC, microtitre using Nutrient broth; details: Microtitre using Nutrient broth, inoculum 0.001 ml of an undilute overnight broth culture, unit inferred
Excerpt: as §1

Enterobacter cloacae N1 [30] = experiment: MIC, microtitre using Nutrient broth; details: Microtitre using Nutrient broth, inoculum 0.001 ml of an undilute overnight broth culture, unit inferred
Excerpt: as §1

[31] = system: Staphylococcus aureus Russell; experiment: MIC, microtitre using Nutrient broth; details: Staphylococcus aureus Russell; Microtitre using Nutrient broth; inoculum 0.001 ml of an undilute overnight broth culture; unit inferred; read-out: MIC Broth
Excerpt: as §1

[32] = system: Streptococcus pyogenes CN10; experiment: MIC, microtitre using Nutrient broth; details: inoculum 0.001 ml of an undilute overnight broth culture, unit inferred
Excerpt: as §1

Proteus morganii I580 [33] = experiment: MIC, microtitre using Nutrient broth; details: Morganella morganii, inoculum 0.001 ml of an undilute overnight broth culture, unit inferred
Excerpt: as §1

Compound `NCC1=C(C(=O)O)N2C(=O)C[C@H]2S1` [compound 37, 2-Aminomethylpenem-3-carboxylic acid] has an MIC (E. coli ESS [1]) of 5 µg/mL, an MIC (Citrobacter freundii E8 [2]) of 12.5 µg/mL and an MIC (Pseudomonas aeruginosa A [3]) of 12.5 µg/mL. For the same compound, the MIC [4] was 0.5 µg/mL, the MIC (Proteus mirabilis C977 [5]) was 25 µg/mL and the MIC (Streptococcus faecalis I [6]) was > 50 µg/mL. It also gave an MIC [7] of 5 µg/mL, an MIC (Escherichia coli JT 39 [8]) of 50 µg/mL and an MIC (Serratia marcescens US20 [9]) of 25 µg/mL. The MIC (Klebsiella aerogenes A [10]) was 50 µg/mL, the MIC [11] was 12.5 µg/mL and the MIC (Shigella sonnei MB 11967 [12]) was 12.5 µg/mL. For the same compound, the MIC (Bacillus subtilis A) was 2.5 µg/mL, the MIC (Escherichia coli 0111 [13]) was 25 µg/mL and the MIC (Proteus rettgeri WM16) was > 50 µg/mL. The MIC (Enterobacter cloacae N1 [14]) was 50 µg/mL, the MIC (Proteus vulgaris W091) was > 50 µg/mL and the MIC [15] was 5 µg/mL. The MIC [16] was 1.25 µg/mL, the MIC [17] was > 50 µg/mL and the MIC (Proteus morganii I580 [18]) was > 50 µg/mL. It also gave an MIC (E. coli ESS [19]) of 4 µg/mL (≈ 20 µM), an MIC (Citrobacter freundii E8 [20]) of 0.5 µg/mL (≈ 2.5 µM) and an MIC (Pseudomonas aeruginosa A [21]) of 1 µg/mL (≈ 4.99 µM). The MIC (Proteus mirabilis C977 [22]) was 8 µg/mL (≈ 40 µM), the MIC (Streptococcus faecalis I [23]) was 62 µg/mL (≈ 310 µM) and the MIC [24] was 2 µg/mL (≈ 9.99 µM). For the same compound, the MIC (Escherichia coli JT 39 [25]) was 16 µg/mL (≈ 79.9 µM), the MIC (Serratia marcescens US20 [26]) was 16 µg/mL (≈ 79.9 µM) and the MIC (Klebsiella aerogenes A [27]) was 8 µg/mL (≈ 40 µM). The MIC (Shigella sonnei MB 11967 [28]) was 4 µg/mL (≈ 20 µM), the MIC (Escherichia coli 0111 [29]) was 8 µg/mL (≈ 40 µM) and the MIC (Enterobacter cloacae N1 [30]) was 16 µg/mL (≈ 79.9 µM). For the same compound, the MIC [31] was 4 µg/mL (≈ 20 µM), the MIC [32] was 1 µg/mL (≈ 4.99 µM) and the MIC (Proteus morganii I580 [33]) was 16 µg/mL (≈ 79.9 µM).
